Measurements from PubChem BioAssay (NCI).
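Protocol summary: plate cells (96-well), add compound at 5 concentrations, incubate 48 h, interpolate endpoints linearly. The concentration for full growth arrest is given as TGI.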

Columns and labels:
Assay in all cases: NCI tumour cell line growth inhibition, 48 h
BT-549 breast = tested on: BT-549 breast
RXF 393 renal = tested on: RXF 393 renal
HCT-15 colon = tested on: HCT-15 colon
CAKI-1 renal = tested on: CAKI-1 renal
IGROV1 ovarian = tested on: IGROV1 ovarian
SF-295 CNS = tested on: SF-295 CNS
M14 melanoma = tested on: M14 melanoma
MCF7 breast = tested on: MCF7 breast
HS 578T breast = tested on: HS 578T breast
MALME-3M melanoma = tested on: MALME-3M melanoma
EKVX NSCLC = tested on: EKVX NSCLC
SNB-19 CNS = tested on: SNB-19 CNS
SK-MEL-2 melanoma = tested on: SK-MEL-2 melanoma
KM12 colon = tested on: KM12 colon
NCI/ADR-RES ovarian = tested on: NCI/ADR-RES ovarian
MDA-N = tested on: MDA-N
OVCAR-3 ovarian = tested on: OVCAR-3 ovarian

SMILES	TGI (BT-549 breast) [µM]	TGI (RXF 393 renal) [µM]	TGI (HCT-15 colon) [µM]	TGI (CAKI-1 renal) [µM]	TGI (IGROV1 ovarian) [µM]	TGI (SF-295 CNS) [µM]	TGI (M14 melanoma) [µM]	TGI (MCF7 breast) [µM]	TGI (HS 578T breast) [µM]	TGI (MALME-3M melanoma) [µM]	TGI (EKVX NSCLC) [µM]	TGI (SNB-19 CNS) [µM]	TGI (SK-MEL-2 melanoma) [µM]	TGI (KM12 colon) [µM]	TGI (NCI/ADR-RES ovarian) [µM]	TGI (MDA-N) [µM]	TGI (OVCAR-3 ovarian) [µM]
COc1cc2nc(-c3cccs3)nc(N3C(c4ccc(O)cc4)=NNC(=O)c4ccccc43)c2cc1OC	42.8	39.6	> 100	43.9	97.7	39.4	79.4	> 100	> 100	43.9	75.6	> 100	60.5	> 100	44.3		
C=CC(C)(C)C(=C)C(=O)N(C)c1ccccc1I		> 100	> 100	> 100		> 100	> 100	> 100	> 100		> 100	> 100	> 100	> 100	> 100	> 100	> 100
COc1ccc(N(C)Sc2ccccc2)cc1		53.4	> 100		> 100	> 100	> 100			> 100		> 100	> 100	> 100			> 100
CCN(CC)c1ccc(C2SCC(=O)N2c2ccc(NC(=O)c3ccc(N4C(=O)CSC4c4ccc(N(CC)CC)cc4)cc3)cc2)cc1 (stereo not drawn)	> 100	> 100	> 100	> 100	> 100	> 100	> 100	> 100	> 100	> 100	> 100	> 100	> 100	> 100	> 100		> 100
CCN1CN(c2ccccc2)C2(CCN(CCCSc3ccc(F)cc3)CC2)C1=O	21.4	25.7	24.9	35.7	19.7	25.7	21.6	12.2		36.1	21.2	24.3		28.9	28.2	26.4	27.2
Cc1cc(OCc2nn(CN3CCN(C)CC3)c(=S)n2/N=C/c2ccc(-c3ccc(Cl)cc3Cl)o2)ccc1Cl		41.3	> 100	> 100	> 100	> 100	> 100	> 100	> 100		> 100		> 100	47.6	> 100	> 100	> 100
O=C1c2cc3c(cc2CC12Cc1cc4c(cc1C2=O)CCC4)CCC3	> 100	> 100	> 100	> 100	> 100	> 100	> 100	> 100	> 100	> 100	> 100	> 100	> 100	> 100	> 100		> 100
CC(C)(C)[Si](C)(C)OCC1OC(n2ccc(=O)[nH]c2=O)C(O[Si](C)(C)C(C)(C)C)[C@@]12O[C@H]2C(N)=O (stereo partly drawn)	40.2		28.4	28.2	8.66	17	42.9	18.7			34.4	24.1	34.6	44.2	38.5	24.1	25.9
COc1ccc(C(=O)/C=C/c2ccc(OCCSCCCCCCCCCCSCCOc3ccc(/C=C/C(=O)c4ccc(OC)cc4)cc3)cc2)cc1		> 100	> 100	> 100	> 100	> 100	> 100	> 100	> 100		> 100	> 100	> 100	> 100	> 100	> 100	
Cc1nc(Nc2ccc(F)cc2)c2sc(=S)n(-c3ccc(F)cc3)c2n1	27.1	25.1	13.8	35.5	22.4	27.3	15.5	18.7	37.7	28.8	26.2	27.8	28.6	28.2	37.3		30.9
CC(O)(/C=C/c1ccccc1)P(=O)(O)c1ccccc1 (stereo not drawn)		> 100	> 100	> 100	> 100	> 100	> 100	> 100	> 100	> 100	> 100	> 100	> 100	> 100	> 100	> 100	> 100
N#Cc1c(-c2ccc(Cl)cc2)c(C#N)c(=O)n(NS(=O)(=O)c2ccccc2)c1S	66.1	> 100	49.6	66.6	65.5	> 100	> 100	> 100		> 100	> 100		> 100		74.2	67.3	> 100
COc1ccc(-c2cc(-c3ccc(Nc4ccnc5cc(Cl)ccc45)cc3)nc(N)c2C#N)cc1	> 100	> 100	> 100	> 100	> 100	> 100	> 100	> 100		> 100	> 100	> 100	> 100	> 100	> 100		> 100
O=C1NCCCC12CCCNC2=O		> 100	> 100		> 100	> 100	> 100			> 100	> 100	> 100		> 100			> 100
O=c1[nH]c(=O)n(COCCO)c2ccc(Br)cc12		> 100	> 100	> 100	> 100	> 100	> 100	> 100			> 100	> 100	> 100	> 100	> 100	> 100	> 100
